Calls of active or inactive are those of the source.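 Rule for the calls: active = at least one rat sex group has a carcinogenic potency value and tumor site recorded; inconclusive = only rat studies were judged inadequate by the national testing program; inactive = no potency or tumor site, with negative rat experiments.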
Test system: rat chronic carcinogenicity bioassay, TD50
Experiment: DSSTox (CPDBAS) Carcinogenic Potency Database Summary Rat Bioassay Results
Details: for Potency: stronger effect = lower value; for outcome: TD50_Rat_Note: no positive results
In short: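 Chronic long-term rat cancer bioassays from literature and NCI/NTP, taking the most positive result per sex. TD50 in mmol converted to a 1–100 Activity Score from log10(1/TD50). Mixtures lacking TD50 scored 50.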

[1] = TargetSites_Rat_Female: no positive results
[2] = TD50_Rat_Note: TD50 is harmonic mean of more than one positive test

| Structure (SMILES) | outcome [1] | also measured |
| --- | --- | --- |
| COc1cccc2c1cc([N+](=O)[O-])c1c(C(=O)O)cc3c(c12)OCO3 | – | Potency (TD50_Rat_Note: TD50 is harmonic mean of more than one positive test, TD50_Rat_mmol was not calculated for this mixture, but Activiity S, TargetSites_Rat_Female: stomach): 0.0141 mg/kg/day |
| O=C(O)COc1ccc(Cl)cc1Cl | inactive; no positive results | – |
| Brc1cc(Br)c(-c2cc(Br)c(Br)cc2Br)cc1Br | – | Potency (TD50_Rat_Note: TD50 is harmonic mean of more than one positive test, TargetSites_Rat_Female: liver): 0.322 mg/kg/day |
| COc1ccc(C(Cl)=C(c2ccc(OC)cc2)c2ccc(OC)cc2)cc1 | inactive; no positive results | – |
| CCc1cccc2c3c([nH]c12)C(CC)(CC(=O)O)OCC3 (stereo not drawn) | inactive; no positive results | – |
| FC(F)(F)CCl | – | Potency (TD50_Rat_Note: TD50 is harmonic mean of more than one positive test, TargetSites_Rat_Female: uterus): 87.3 mg/kg/day |
| N[C@@H](CS)C(=O)O | inactive; no positive results | – |
| CCN(CC)C(=S)S[Te](SC(=S)N(CC)CC)(SC(=S)N(CC)CC)SC(=S)N(CC)CC | inactive; no positive results | – |
| C=C/C=N/O | inactive; no positive results | – |
| CC(O)CN(CCO)N=O (stereo not drawn) | – | Potency (TargetSites_Rat_Female: esophagus, liver, vascular system): 1.02 mg/kg/day |
| CC(C)Cc1ccc(C(C)C(=O)O)cc1 (stereo not drawn) | – | outcome: inactive; no positive results |
| O=NN(CC(=O)O)CC(=O)O | inactive; no positive results | – |
| O=[O+][O-] | inactive; no positive results | – |
| C=CF | – | Potency (TD50_Rat_Note: TD50 is harmonic mean of more than one positive test, TargetSites_Rat_Female: ear Zymbals gland, liver, vascular system): 20 mg/kg/day |
| Nc1cccc(N)c1 | – | outcome: inactive; no positive results |
| CN(N=O)c1ccncc1 | inactive | – |
| CN(C)[C@@H]1C(=O)C(C(N)=O)=C(O)[C@@]2(O)C(=O)C3=C(O)c4c(O)cccc4[C@@](C)(O)[C@H]3C[C@@H]12 | inactive; no positive results | – |
| CCOP(=S)(OCC)Oc1ccc([N+](=O)[O-])cc1 | inactive; no positive results | – |
| Nc1ncc([N+](=O)[O-])s1 | – | Potency (TargetSites_Rat_Female: kidney, lung, mammary gland): 44.6 mg/kg/day |
| O=NN1CCNCC1 | – | Potency (TD50_Rat_Note: TD50 is harmonic mean of more than one positive test, no positive results are statistically significant, TargetSites_Rat_Female: all tumor bearing animals): 8.78 mg/kg/day |
| CC(C)C(C(=O)OC(C#N)c1cccc(Oc2ccccc2)c1)c1ccc(Cl)cc1 (stereo not drawn) | inactive; no positive results | – |
| [K+] | – | Potency (TD50_Rat_Note: TD50 is harmonic mean of more than one positive test, TargetSites_Rat_Female: oral cavity): 440 mg/kg/day |
| O=C1C=C2C(=CCOC2O)O1 (stereo not drawn) | inactive | – |
| O=C1c2ccccc2C(=O)c2c(O)c(O)cc(O)c21 | – | Potency: 678 mg/kg/day |

| Structure (SMILES) | outcome [1] | also measured |
| --- | --- | --- |
| C=C(C)C(=O)OC | inactive; no positive results | – |
| CCCl | inactive; no positive results | – |
| CC(O)c1ccccc1 (stereo not drawn) | – | Potency [1]: 458 mg/kg/day |
| CCN(CC)C(=O)Nc1ccc(OCC(O)CNC(C)(C)C)c(C(C)=O)c1 (stereo not drawn) | inactive; no positive results | – |
| C=C(F)F | inactive; no positive results | – |
| C=COC(C)=O | – | Potency (TD50_Rat_Note: TD50 is harmonic mean of more than one positive test, greater than ten-fold variation among TD50 values for positive res, TargetSites_Rat_Female: liver, nasal cavity, thyroid gland, uterus): 341 mg/kg/day |
| O=C(O)C(Cl)(Cl)Cl | – | outcome: inactive; no positive results |
| CCOC(N)=O | – | Potency (TargetSites_Rat_BothSexes: all tumor bearing animals): 41.3 mg/kg/day |
| O=c1[nH]c(=O)n(C2CCCO2)cc1F (stereo not drawn) | inactive; no positive results | – |
| ClC1=C(Cl)[C@]2(Cl)[C@@H]3[C@H]4C[C@H]([C@@H]5O[C@H]45)[C@@H]3[C@@]1(Cl)C2(Cl)Cl | inactive; no positive results | – |
| CN(C)CCN(Cc1cccs1)c1ccccc1 | inactive; no positive results | – |
| O=NN1CCCCCCC1 | – | Potency [2]: 0.0378 mg/kg/day |
| CCOc1nc2cccc(C(=O)OC(C)OC(=O)OC3CCCCC3)c2n1Cc1ccc(-c2ccccc2-c2nn[nH]n2)cc1 (stereo not drawn) | inactive; no positive results | – |
| COc1ccc(C(=O)Nc2c(Cl)cncc2Cl)cc1OC1CCCC1 | – | Potency (TD50_Rat_Note: TD50 is harmonic mean of more than one positive test, TargetSites_Rat_Female: nasal cavity): 1.54 mg/kg/day |
| CN1C(=O)CN=C(c2ccccc2)c2cc(Cl)ccc21 | inactive; no positive results | – |
| NN | – | Potency (TD50_Rat_Note: TD50 is harmonic mean of more than one positive test, greater than ten-fold variation among TD50 values for positive res, TargetSites_Rat_Female: liver, lung, nasal cavity): 0.613 mg/kg/day |
| O=NN(CCO)CCO | – | Potency (TD50_Rat_Note: TD50 is harmonic mean of more than one positive test, greater than ten-fold variation among TD50 values for positive res, TargetSites_Rat_Female: esophagus, kidney, liver, nasal cavity): 3.17 mg/kg/day |
| CN(CCc1ccccc1)N=O | – | Potency [2]: 0.00998 mg/kg/day |
| ClC1=C(Cl)C(Cl)(Cl)C(Cl)=C1Cl | inactive; no positive results | – |
| COC(=O)C1=C(C)NC(C)=C(C(=O)OCC(C)(C)CN(C)Cc2ccccc2)C1c1cc([N+](=O)[O-])ccc1F (stereo not drawn) | inactive; no positive results | – |
| COc1cc2c(c3oc(=O)c4c(c13)CCC4=O)C1C=COC1O2 (stereo not drawn) | – | Potency (TD50_Rat_Note: TD50 is harmonic mean of more than one positive test, harmonic mean of TD50 includes a value for upper 99% confidence li, TargetSites_Rat_Female: large intestine, liver): 0.0032 mg/kg/day |
| Cc1nnc2n1-c1sc(CCc3ccc(CC(C)C)cc3)cc1C(c1ccccc1Cl)=NC2C (stereo not drawn) | inactive; no positive results | – |
| CN(Cc1cnc2nc(N)nc(N)c2n1)c1ccc(C(=O)N[C@@H](CCC(=O)O)C(=O)O)cc1 | inactive; no positive results | – |
| Oc1cccc(O)c1 | inactive; no positive results | – |
